Data published in patent EP4786487A1, “PEPTIDE” (Peptidream Inc, priority 2023, dated 2025).
Like-named read-outs stand apart in the source and are kept apart here. Starred links: 1 amine or outer side, 2 acyl side, 3 side chain; linkers in the order of their positions; H or OH if unused. Positions of bridges follow the written chain, without caps; N, C: chain ends. Non-standard residues stand in square brackets, D forms with d. Residues, ends and D or L forms follow the SMILES beside them. Trp(6-OH,1-(4-HO2C-Ph)) = N[C@@H](Cc1cn(-c2ccc(C(=O)O)cc2)c2cc(O)ccc12)C(=O)O; Phe(3-OCH2COOH) = N[C@@H](Cc1cccc(OCC(=O)O)c1)C(=O)O; Phe(4-COOH) = N[C@@H](Cc1ccc(C(=O)O)cc1)C(=O)O; Bip = N[C@@H](Cc1ccc(-c2ccccc2)cc1)C(=O)O; Gly(N(CH2)3COOH) = O=C(O)CCCNCC(=O)O; NMeY = CN[C@@H](Cc1ccc(O)cc1)C(=O)O; X1 = CCCCCCC[C@H](N[*:1])C(=O)[*:2]; NMeF = CN[C@@H](Cc1ccccc1)C(=O)O; NMeA = CN[C@@H](C)C(=O)O; dNMeA = CN[C@H](C)C(=O)O; Sar = CNCC(=O)O

Assays:
Assay type in all cases: cell-based
Myostatin [1] = target: T1, Myostatin (Homo sapiens, UniProt O14793); experiment: Reporter gene assay for myostatin signaling in HepG2 cell line, Evaluation Procedure (1), myostatin inhibition
T1 construct: active myostatin (also called mature myostatin) is a homodimer consisting of two C-terminal growth factor domains; purchased R&D systems 788-G8/CF
T1 sequence (O14793 267-375): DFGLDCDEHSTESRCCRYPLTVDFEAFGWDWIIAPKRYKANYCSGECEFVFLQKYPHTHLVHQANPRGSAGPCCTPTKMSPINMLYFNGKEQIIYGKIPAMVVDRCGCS
Description: (§1) In this Example, the in vitro myostatin inhibitory effects of the peptides synthesized in Examples 1 and 2 were evaluated using a reporter gene assay for myostatin signaling in HepG2 cell line.
(§2) HepG2 cell line (HB-8065, ATCC) cultured in EMEM (055-08975, WAKO Industries) containing 10% FBS (10270106, Gibco) and 50 µg/mL gentamicin (11980-14, Nacalai Tesque) was seeded in 96-well plates (167008, Thermo) at 2.0 × 10^4 cells/well and incubated in a CO2 incubator (37°C, 5% CO2) for 24 hours. The pGL3(CAGA)12-luc plasmid, namely a pGL3 vector (E1751, Promega) having a luciferase gene inserted downstream of a promoter sequence with 12 CAGA repeats attached, was added to the wells along with a transfection reagent (X-treamGENE9 DNA Transfection Reagent, 6365809001, Roche) at a concentration of 0.04 µg/well. The cell line was cultured in a CO2 incubator (37°C, 5% CO2) for 24 hours for transfection. The medium was discarded and replaced with EMEM containing 50 µL/well of 0.1% bovine serum albumin (A7030, Sigma) and 50 µg/mL gentamicin, and incubated in a CO2 incubator (37°C, 5% CO2) for 2 hours.
(§3) Myostatin (788-G8/C, R&D systems) or GDF-11 (1958-GD-G8/CF, R&D systems) was added so that the final concentrations were those listed in Table 5.
(§4) A 4-fold dilution series of various peptides synthesized in Examples 1 and 2 was added to achieve 0.006-100 nmol/L (myostatin inhibition) and 0.12-2000 nmol/L (GDF-11 inhibition). At this time, blank wells, in which neither myostatin, GDF-11, nor each peptide was added, were also prepared and incubated in a CO2 incubator (37°C, 5% CO2) for 20 to 24 hours.
(§5) The medium containing the cells was removed, and a mixture containing PBS (14190144, Thermo) and a chromogenic substrate One-Glo Luciferase Assay System (E6120, Promega) at a ratio of 1:1 was added to each well at 100 µL/well. This was stirred with a plate shaker for 5 min and transferred to a 384-well plate (3570, Corning) at a volume of 20 µL/well.
(§6) The plate was centrifuged at 1,000 × g for 1 min and the luminescence signal (700 nm luminescence) was measured using a plate reader (Envision 2104, PerkinElmer). Based on the measured values, IC50 values of the peptides were calculated using software (Prism 9, GraphPad). […]
(§7) In this Example, the in vitro myostatin inhibitory effects of the peptides synthesized in Examples 10 and 11 were evaluated according to the Evaluation Procedure (1) in Example 3.

GDF-11 [2] = target: T2, GDF-11 (Homo sapiens, UniProt O95390); experiment: Reporter gene assay for myostatin signaling in HepG2 cell line, Evaluation Procedure (1), GDF-11 inhibition
T2 construct: purchased R&D systems 1958-GD-G8/CF
T2 sequence (O95390 299-407): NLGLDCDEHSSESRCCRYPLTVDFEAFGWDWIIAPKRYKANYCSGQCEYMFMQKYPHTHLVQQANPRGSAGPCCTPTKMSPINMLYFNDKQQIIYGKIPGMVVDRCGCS
Description: as §1, §2, §3, §4, §5, §6, §7

Myostatin [3] = target: T1, Myostatin; experiment: HepG2 reporter gene assay, Evaluation Procedure (2): 2-concentrations assay, myostatin inhibition; conditions: Myostatin 10 ng/mL, HepG2
Method in brief: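 Myostatin inhibition was measured in a luciferase reporter assay using HepG2 cells transfected with a pGL3 vector containing 12 CAGA repeats upstream of luciferase. After 20 to 24 hours with 10 ng/mL myostatin, cells received One-Glo:PBS (1:1) at 100 µL/well, were shaken for 5 min, and 20 µL/well was moved to 384-well plates and read on an Envision 2104.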

GDF-11 [4] = target: T2, GDF-11; experiment: HepG2 reporter gene assay, Evaluation Procedure (2): 2-concentrations assay, GDF-11 inhibition; conditions: GDF-11 10 ng/mL
Method in brief: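 HepG2 cells carrying the transfected pGL3(CAGA)12-luc reporter, a pGL3 vector with luciferase placed downstream of 12 CAGA repeats, were stimulated with GDF-11 at a final 10 ng/mL together with test peptide. Blank wells received no GDF-11 and no peptide. Plates were incubated 20 to 24 hours at 37°C with 5% CO2. Luminescence from One-Glo substrate was read to calculate percent inhibition.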

## CCCCCCC[C@@H]1NC(=O)[C@H](Cc2ccccc2)N(C)C(=O)[C@H](CCCNC(=N)N)NC(=O)[C@H](Cc2ccc(C(=O)O)cc2)NC(=O)[C@H](Cc2cccc(OCC(=O)O)c2)NC(=O)[C@H]2CCCN2C(=O)[C@H]([C@@H](C)CC)NC(=O)[C@H](Cc2ccccc2)N(C)C(=O)[C@H](Cc2ccc(O)cc2)NC(=O)[C@H](Cc2cn(-c3ccc(C(=O)O)cc3)c3cc(O)ccc23)NC(=O)[C@H](C)NC(=O)[C@H](C)NC(=O)[C@H](C)N(C)C(=O)[C@@H](C)NC(=O)[C@H](Cc2ccccc2)N(C)C(=O)[C@H](C)N(C)C1=O [Myostatin_99_v483] (cyclo(AA[Trp(6-OH,1-(4-HO2C-Ph))]Y[NMeF]I[dP][Phe(3-OCH2COOH)][Phe(4-COOH)]R[NMeF][X1][NMeA][NMeF][dA][NMeA]))
Myostatin [1]; HepG2, luciferase reporter, Evaluation Procedure (1), Method D
  IC50: 0.14 nM
GDF-11 [2]; HepG2, luciferase reporter, Evaluation Procedure (1), Method D, read-out: IC50 (Luciferase) GDP-11 HepG2
  IC50: 59.9 nM

## CC[C@H](C)[C@@H]1NC(=O)[C@H](Cc2ccc(O)cc2)N(C)C(=O)[C@H](Cc2ccc(O)cc2)NC(=O)[C@H](Cc2ccc(-c3ccccc3)cc2)NC(=O)[C@H](C)NC(=O)CN(CCCC(=O)O)C(=O)CSC[C@H](C(=O)O)NC(=O)[C@H](Cc2ccccc2)N(C)C(=O)[C@H](C)N(C)C(=O)[C@H](CC(C)C)NC(=O)[C@H](Cc2ccccc2)N(C)C(=O)[C@H](CCCNC(=N)N)NC(=O)[C@H](Cc2ccc(C(=O)O)cc2)NC(=O)[C@H](Cc2cccc(OCC(=O)O)c2)NC(=O)[C@@H](C)N(C)C1=O [Myostatin_99_v118] ({CH2CO}-[Gly(N(CH2)3COOH)]A[Bip]Y[NMeY]I[dNMeA][Phe(3-OCH2COOH)][Phe(4-COOH)]R[NMeF]L[NMeA][NMeF][dC]-OH; thioether N-15)
Myostatin [1]; Method A: Myostatin 10 ng/mL, read-out: IC50 (Luciferase) Myostatin HepG2
  IC50: 23.1 nM
GDF-11 [2]; Method A: GDF-11 10 ng/mL, read-out: IC50 (Luciferase) GDF-11 HepG2
  IC50: 4030 nM

## CC[C@H](C)[C@@H]1NC(=O)[C@H](Cc2ccccc2)N(C)C(=O)[C@H](Cc2ccc(O)cc2)NC(=O)[C@H](Cc2c[nH]c3ccccc23)NC(=O)[C@H](CCCNC(=N)N)NC(=O)[C@H](C)NC(=O)CSC[C@H](C(N)=O)NC(=O)[C@H](Cc2ccccc2)N(C)C(=O)[C@H](C)N(C)C(=O)[C@H](CC(C)C)NC(=O)[C@H](Cc2ccccc2)N(C)C(=O)[C@H](CCCNC(=N)N)NC(=O)[C@H](Cc2ccc(O)cc2)NC(=O)[C@H](Cc2ccc(O)cc2)NC(=O)CN(C)C1=O [Myostatin_000099_15dc] ({CH2CO}-ARWY[NMeF]I[Sar]YYR[NMeF]L[NMeA][NMeF][dC]-NH2; thioether N-15)
Myostatin [3]; peptide 30nM, read-out: Myostatin Inhibition 30nM
  inhibition at 0.03 µM: 69%
Myostatin [3]; peptide 100nM, read-out: Myostatin Inhibition 100nM
  inhibition at 0.1 µM: 89%
GDF-11 [4]; HepG2, peptide 30nM, read-out: GDF11 Inhibition 30nM
  inhibition at 0.03 µM: 0%
GDF-11 [4]; HepG2, peptide 100nM, read-out: GDF11 Inhibition 100nM
  inhibition at 0.1 µM: 12%
